Test results as given in patent US20220160669A1, “PARENTERAL NUTRITION FORMULATION” (BAXTER INTERNATIONAL INC., priority 2020, published 2022).

Legend:
[1] = system: pro-inflammatory cytokines I1-1β, I1-6, TNF-α; test: Ileal cytokine concentration, pro-inflammatory; format: in vivo, pig; design: key: +++ indicate P < 0.01; ++ indicates P < 0.05; + indicates positive trends; = denotes no significant P value; − denotes negative trends; details: compared to standard PN (s-PN)
From the text: (§1) Neonatal Yorkshire/Landrace cross bred piglets (n=72; six at a time from the same litter, repeating 12 times) were obtained from Oak Hill Genetics (Ewing, Ill.) after 48-hour sow reared for colostrum consumption and iron supplementation.
(§2) The influence of the respective supplements on inflammation was investigated by determining Il-6, Il-1beta, TNF-alpha and Il-10 serum levels in the intervention groups compared to EN and PN according to Milo et al., Effects of Short-Chain Fatty Acid-Supplemented Total Parenteral Nutrition on Intestinal Pro-Inflammatory Cytokine Abundance. Digestive Diseases and Sciences 2002; 47:2049-2055. Jejunal and ileal samples were homogenized in double-distilled water, and the Bradford protein assay (Biorad, Hercules, Calif., USA) was performed on homogenate and plasma samples. Protein (30 μg) from each sample was denatured by boiling, and proteins were separated by size using 12.5% sodium dodecyl sulfate polyacrylamide gel electrophoresis. Separated proteins were transferred to polyvinylidene difluoride membranes (Biorad) using a semidry transfer apparatus (Biorad). Western blot analysis for TNF-alpha, IL-1beta, Il-10 and IL-6 was performed using porcine-specific polyclonal antibodies (Endogen, Woburn, Mass., USA). A mouse anti-pig monoclonal TNF-alpha antibody was used to detect TNF-alpha ([…]). Rabbit anti-pig polyclonal antibodies specific for IL-1beta and IL-6 were used to detect IL-1beta (17,500 kDa), Il-10 (18,600 kDa) and IL-6 (26,000 kDa). Membranes were developed using the Opti-4CN kit (Biorad) and photographed using the FOTO/Analyst Image Analysis System (Fotodyne, Inc., Hartland, Wis., USA). Densitometry of TNF-alpha, IL-1beta, IL-6, and Il-10 was performed using Collage Image Analysis Software 4.0 (Fotodyne, Inc.). Results are shown in FIG. 15 (Il-6), FIG. 16 (Illbeta), FIG. 17 (TNF-alpha) and FIG. 18 (Il-10).

[2] = system: anti-inflammatory cytokines I1-10; test: Jejunal cytokine concentration, anti-inflammatory; format: in vivo, pig; design: key: +++ indicate P < 0.01; ++ indicates P < 0.05; + indicates positive trends; = denotes no significant P value; − denotes negative trends; details: compared to standard PN (s-PN)
From the text: as §1, §2

[3] = system: anti-inflammatory cytokines I1-8, I1-10; test: Ileal cytokine concentration, anti-inflammatory; format: in vivo, pig; design: key: +++ indicate P < 0.01; ++ indicates P < 0.05; + indicates positive trends; = denotes no significant P value; − denotes negative trends; details: compared to standard PN (s-PN)
From the text: as §1, §2

[4] = system: pro-inflammatory cytokines I1-1β, I1-6, TNF-α; test: Jejunal cytokine concentration, pro-inflammatory; format: in vivo, pig; details: compared to standard PN (s-PN)
From the text: as §1, §2

TNF-alpha = test: Serum cytokine quantification, TNF-alpha; format: in vivo, pig; details: 10 mmol/L TPN (Group C)
From the text: as §1
as §2, with “Rabbit anti-pig polyclonal antibodies specific for IL-1beta and IL-6 were used to detect IL-1beta (17,500 kDa), Il-10 (18,600 kDa) and IL-6 (26,000 kDa). Membranes were developed using the Opti-4CN kit (Biorad) and photographed using the FOTO/Analyst Image Analysis System (Fotodyne, Inc., Hartland, Wis., USA). Densitometry of TNF-alpha, IL-1beta, IL-6, and Il-10 was performed using Collage Image Analysis Software 4.0 (Fotodyne, Inc.). Results are shown in FIG. 15 (Il-6), FIG. 16 (Illbeta), FIG. 17 (TNF-alpha) and FIG. 18 (Il-10).” left out

Il-6 = test: Serum cytokine quantification, Il-6; format: in vivo, pig; details: 10 mmol/L TPN (Group C)
From the text: as §1
as §2, with “Rabbit anti-pig polyclonal antibodies specific for IL-1beta and IL-6 were used to detect IL-1beta (17,500 kDa), Il-10 (18,600 kDa) and IL-6 (26,000 kDa). Membranes were developed using the Opti-4CN kit (Biorad) and photographed using the FOTO/Analyst Image Analysis System (Fotodyne, Inc., Hartland, Wis., USA). Densitometry of TNF-alpha, IL-1beta, IL-6, and Il-10 was performed using Collage Image Analysis Software 4.0 (Fotodyne, Inc.). Results are shown in FIG. 15 (Il-6), FIG. 16 (Illbeta), FIG. 17 (TNF-alpha) and FIG. 18 (Il-10).” left out

[5] = cited from earlier work
Il-1beta = test: Serum cytokine quantification, Il-1beta; format: in vivo, pig; details: 10 mmol/L TPN (Group C)
From the text: as §1
as §2, with “Rabbit anti-pig polyclonal antibodies specific for IL-1beta and IL-6 were used to detect IL-1beta (17,500 kDa), Il-10 (18,600 kDa) and IL-6 (26,000 kDa). Membranes were developed using the Opti-4CN kit (Biorad) and photographed using the FOTO/Analyst Image Analysis System (Fotodyne, Inc., Hartland, Wis., USA). Densitometry of TNF-alpha, IL-1beta, IL-6, and Il-10 was performed using Collage Image Analysis Software 4.0 (Fotodyne, Inc.). Results are shown in FIG. 15 (Il-6), FIG. 16 (Illbeta), FIG. 17 (TNF-alpha) and FIG. 18 (Il-10).” left out

[6] = system: metastatic colorectal cancer patients; details: aqueous solution, pH 7.7, phase I clinical trial; cited from earlier work

Row | Compound | Ileal Cytokine Concentration (less pro-inflammatory cytokines I1-1β, I1-6, TNF-α) ([1]; 10 mmol/L) | Ileal Cytokine Concentration (less pro-inflammatory cytokines I1-1β, I1-6, TNF-α) ([1]; 30 mmol/L) | Jejunal Cytokine Concentration (more anti-inflammatory cytokines I1-8, I1-10) ([2]; 10 mmol/L) | Jejunal Cytokine Concentration (more anti-inflammatory cytokines I1-8, I1-10) ([2]; 30 mmol/L) | Ileal Cytokine Concentration (more anti-inflammatory cytokines I1-8, I1-10) ([3]; 10 mmol/L) | Ileal Cytokine Concentration (more anti-inflammatory cytokines I1-8, I1-10) ([3]; 30 mmol/L) | Jejunal Cytokine Concentration (less pro-inflammatory cytokines I1-1β, I1-6, TNF-α) ([4]; 10 mmol/L) | Jejunal Cytokine Concentration (less pro-inflammatory cytokines I1-1β, I1-6, TNF-α) ([4]; 30 mmol/L) | serum levels of TNF-alpha (FIG. 17) (TNF-alpha) | serum levels of Il-6 (FIG. 15) (Il-6) | clearance rate ([5]; human, in vivo) | steady state concentration ([5]; infusion rate of 2000 mg/kg/day, patients with hemoglobinopathy) | serum levels of Il1-beta (FIG. 16) (Il-1beta) | tolerated dose [6]
1 | CCCC(=O)OCC(COC(=O)CCC)OC(=O)CCC [Tributyrin] | = | + | = | + | − | + | ++ (++ indicates P < 0.05) | ++ (++ indicates P < 0.05) |  |  |  |  |  | 
2 | L-arginine, butanoate (3:4) [Arginine butyrate] | ++ (++ indicates P < 0.05) |  | ++ (++ indicates P < 0.05) |  | +^4 |  | +++ (+++ indicate P < 0.01) |  | lower than in the other Study (or intervention) Groups | significantly lower than in the standard PN group | 93.6 ± 31.9 mL/min/kg | 15.7 ± 4.8 mg/L | significantly lower than in the standard PN group | 3 g/kg/day
